In patent US20250163484A1, “Methods for Incorporating Azido Groups in Bacterial Capsular Polysaccharides” (PFIZER INC., priority 2022, published 2025):
Where “and” joins values, the source holds several entries; their conditions need not be identical. Equal values may be shown once. Read-outs that look alike come from different tables or passages of the source.

Experiments:
Type in all cases: cell-based, Streptococcus pneumoniae serotype 14
S. pneumoniae T14 [1] = experiment: Growth of S. pneumoniae T14 in fermentation with azido sugar (OD600); details: production media + 2AzGlc (10 mM)
Method: FIGS. 1A-1D. Screen for azido sugar incorporation into S. pneumoniae T14 capsule polysaccharide. Vessels (100 mL working volume) were inoculated with a 10-fold dilution of bacteria grown in seed expansion media supplemented with Galactose (30 g/L) (OD600=1.0-1.2) and incubated at 36° C. and 173 rpm with an air overlay of 1.5 SLPH. Media (production medium supplemented with Glucose (30 g/L) (black bars) or production medium supplemented with Galactose (30 g/L) (grey bars)) pH was controlled at 7.0. Bacteria were grown until the ΔOD600≥0 for >30 minutes, then lysed with 0.1% NLS for 30 minutes. Growth was measured offline using a spectrophotometer blanked with PBS at 600 nm. (FIG. 1A) azido incorporation into polysaccharide was then quantified via fluorescent labeling (FL) with normalization to refractive index (RI). MaxOD and End Of Fermentation time (EOF) are provided in (FIG. 1B) and (FIG. 1C), respectively. Polysaccharide was extracted using EtOH and CaCl2 and analyzed via SEC-RI for (FIG. 1D) polysaccharide titer. n=1-4, error bars=+/−StDev.
To identify azido sugars that could incorporate into S. pneumoniae T14 capsule, we grew S. pneumoniae T14 (serotype 14) in the production medium supplemented with various azido sugars (Table 3) supplied at 1 mM. We performed our screen using both production medium supplemented with Glucose (dextrose, 30 g/L) and production medium supplemented with Galactose (30 g/L).
(§1) We tested the impact of 2AzGlc concentration on S. pneumoniae T14 growth, polysaccharide production, and azido incorporation by growing the bacteria in production media (supplemented with Glucose (dextrose, 30 g/L)) with various concentrations of 2AzGlc (0, 1, 5, 10, 20, 40, and 60 mM).
To improve the incorporation of 2AzGlc into S. pneumoniae T14 capsule in production media (supplemented with Glucose (dextrose, 30 g/L)), we performed a 16-vessel DOE designed to test the impact of pH (6.33, 6.66, 7.00, and 7.33) and agitation (100, 200, and 300 rpm) on four response variables (MaxOD, Poly Titer, Poly Size, and FL/RI).

S. pneumoniae T14 [2] = details: for Polysacch. Titer: production medium + Galactose (30 g/L) + 2AzGlc (0.25 mM)
Method: FIGS. 1A-1D. Screen for azido sugar incorporation into S. pneumoniae T14 capsule polysaccharide. […] Bacteria were grown until the ΔOD600≥0 for >30 minutes, then lysed with 0.1% NLS for 30 minutes. Growth was measured offline using a spectrophotometer blanked with PBS at 600 nm. (FIG. 1A) azido incorporation into polysaccharide was then quantified via fluorescent labeling (FL) with normalization to refractive index (RI). MaxOD and End Of Fermentation time (EOF) are provided in (FIG. 1B) and (FIG. 1C), respectively. Polysaccharide was extracted using EtOH and CaCl2 and analyzed via SEC-RI for (FIG. 1D) polysaccharide titer. n=1-4, error bars=+/−StDev.
FIGS. 2A-2D Impact of 2AzGlcAc4 concentration on S. pneumoniae T14 growth and poly production in production medium supplemented with Galactose (30 g/L). […] (FIG. 2A) Growth was measured offline using a spectrophotometer blanked with PBS at 600 nm. At the end of fermentation, cultures were lysed with 0.1% NLS for 30 min. and polysaccharide was extracted via EtOH/CaCl2) precipitation. Polysaccharide titer (FIG. 2B) and size (FIG. 2C) were measured via SEC-RI and SEC-MALS, respectively. (FIG. 2D) azido incorporation was then quantified via fluorescent labeling (FL) and normalized to the refractive index (RI). n=3, error bars=+/−StDev.
FIGS. 3A-3E Impact of 2AzGlc concentration on S. pneumoniae T14 growth and polysaccharide production in production medium supplemented with Galactose (30 g/L). […] (FIG. 3A) Growth was measured offline using a spectrophotometer blanked with PBS at 600 nm. Cultures were lysed with 0.1% NLS for 30 min. and polysaccharide was extracted via EtOH/CaCl2) precipitation. Polysaccharide (FIG. 3B/FIG. 3C) titer and (FIG. 3D) size were measured via SEC-RI and SEC-MALS, respectively. (FIG. 3E) azido incorporation was then quantified via fluorescent labeling (FL) and normalized to the refractive index (RI). n=3, error bars=+/−StDev.
as §1

S. pneumoniae T14 [3] = experiment: Growth of S. pneumoniae T14 in fermentation with azido sugar (OD600); details: for MaxOD600 nm: production media + 2AzGlc (10 mM)
[4] = 2AzGlc titration 0-60 mM, production media + Glucose (dextrose, 30 g/L)
[5] = 2AzGlc titration, production media + Glucose (dextrose, 30 g/L)
[6] = 2AzGlc titration, production medium + Galactose (30 g/L)
[7] = azido feed DOE: Gal 30 g/L, initial 2AzGlc 0 mM, 2AzGlc feed stock 4 mM, pH 7.33, 300 rpm
[8] = azido feed DOE: Gal 30 g/L, initial 2AzGlc 0 mM, 2AzGlc feed stock 6.5 mM, pH 7.33, 300 rpm
[9] = azido feed DOE: Gal 30 g/L, initial 2AzGlc 0.1 mM, 2AzGlc feed stock 4 mM, pH 7.33, 300 rpm
[10] = azido feed DOE: Gal 30 g/L, initial 2AzGlc 0.1 mM, 2AzGlc feed stock 6.5 mM, pH 7.33, 300 rpm
[11] = azido feed DOE: Gal 40 g/L, initial 2AzGlc 0 mM, 2AzGlc feed stock 4 mM, pH 7.33, 300 rpm
[12] = azido feed DOE: Gal 40 g/L, initial 2AzGlc 0 mM, 2AzGlc feed stock 6.5 mM, pH 7.33, 300 rpm
[13] = azido feed DOE: Gal 40 g/L, initial 2AzGlc 0.1 mM, 2AzGlc feed stock 4 mM, pH 7.33, 300 rpm
[14] = azido feed DOE: Gal 40 g/L, initial 2AzGlc 0.1 mM, 2AzGlc feed stock 6.5 mM, pH 7.33, 300 rpm
[15] = azido sugar 20 mM without DMSO, production medium + Galactose (30 g/L)
[16] = initial galactose 40 g/L, initial 2AzGlc 0.1 mM, 4.0 mM 2AzGlc feed stock
[17] = screen, azido sugar 1 mM, only in production medium + Galactose

[N-]=[N+]=N[C@@H](C=O)[C@@H](O)[C@H](O)[C@H](O)CO [2AzGlc, 2-Azido-2-deoxy-D-glucose]
MaxOD600 nm (S. pneumoniae T14 [1]; pH 6.33, agitation 100 rpm): 12.1 and 13.6
MaxOD600 nm (S. pneumoniae T14 [1]; pH 6.33, agitation 300 rpm): 10.8 and 10.7
MaxOD600 nm (S. pneumoniae T14 [1]; pH 7, agitation 100 rpm): 8.8 and 7.8
MaxOD600 nm (S. pneumoniae T14 [1]; pH 7.33, agitation 100 rpm): 8.9 and 9.6
MaxOD600 nm (S. pneumoniae T14 [1]; pH 7.33, agitation 200 rpm): 8.5 and 8.3
max size reduction (S. pneumoniae T14 [2]; [4]): 78%
max titer loss (S. pneumoniae T14 [2]; [4]): 56%
concentration at which negative effect on poly production started (S. pneumoniae T14 [2]; [5]): 1 mM
polysaccharide titers with increasing 2AzGlc concentrations (S. pneumoniae T14 [2]; [6]): negatively impacted
Poly Titer (S. pneumoniae T14 [2]; [7]): 0.2358 mg/mL and 0.22 mg/mL
Poly Titer (S. pneumoniae T14 [2]; [8]): 0.1846 mg/mL and 0.189 mg/mL
Poly Titer (S. pneumoniae T14 [2]; [9]): 0.1856 mg/mL and 0.1876 mg/mL
Poly Titer (S. pneumoniae T14 [2]; [10]): 0.1266 mg/mL and 0.137 mg/mL
Poly Titer (S. pneumoniae T14 [2]; [11]): 0.2204 mg/mL and 0.1796 mg/mL
Poly Titer (S. pneumoniae T14 [2]; [12]): 0.1826 mg/mL and 0.1536 mg/mL
Poly Titer (S. pneumoniae T14 [2]; [13]): 0.1882 mg/mL and 0.1748 mg/mL
Poly Titer (S. pneumoniae T14 [2]; [14]): 0.1251 mg/mL and 0.1011 mg/mL
polysaccharide production (S. pneumoniae T14 [2]; [15]): strongly inhibited
polysaccharide titer (average) (S. pneumoniae T14 [2]; [16]): 0.1815 mg/mL
Poly Titer (S. pneumoniae T14 [2]; production media + 2AzGlc (10 mM), pH 6.33, agitation 100 rpm): 0.39 mg/mL
Poly Titer (S. pneumoniae T14 [2]; production media + 2AzGlc (10 mM), pH 6.33, agitation 300 rpm): 0.44 mg/mL and 0.42 mg/mL
Poly Titer (S. pneumoniae T14 [2]; production media + 2AzGlc (10 mM), pH 6.66, agitation 200 rpm): 0.52 mg/mL and 0.47 mg/mL
Poly Titer (S. pneumoniae T14 [2]; production media + 2AzGlc (10 mM), pH 7, agitation 100 rpm): 0.40 mg/mL and 0.41 mg/mL
Poly Titer (S. pneumoniae T14 [2]; production media + 2AzGlc (10 mM), pH 7, agitation 300 rpm): 0.43 mg/mL and 0.48 mg/mL
Poly Titer (S. pneumoniae T14 [2]; production media + 2AzGlc (10 mM), pH 7.33, agitation 100 rpm): 0.36 mg/mL and 0.37 mg/mL
Poly Titer (S. pneumoniae T14 [2]; production media + 2AzGlc (10 mM), pH 7.33, agitation 200 rpm): 0.41 mg/mL and 0.44 mg/mL
Poly Titer (S. pneumoniae T14 [2]; production media + 2AzGlc (10 mM), pH 7.33, agitation 300 rpm): 0.41 mg/mL
Titer (S. pneumoniae T14 [2]; production media + Glucose (dextrose, 30 g/L), media pH 7, 2AzGlc 1 mM): 0.63 mg/mL
Titer (S. pneumoniae T14 [2]; production media + Glucose (dextrose, 30 g/L), media pH 7, 2AzGlc 5 mM): 0.53 mg/mL
Titer (S. pneumoniae T14 [2]; production media + Glucose (dextrose, 30 g/L), media pH 7, 2AzGlc 10 mM): 0.43 mg/mL
Titer (S. pneumoniae T14 [2]; production media + Glucose (dextrose, 30 g/L), media pH 7, 2AzGlc 20 mM): 0.32 mg/mL
Titer (S. pneumoniae T14 [2]; production media + Glucose (dextrose, 30 g/L), media pH 7.33, 2AzGlc 20 mM): 0.3 mg/mL
Titer (S. pneumoniae T14 [2]; production media + Glucose (dextrose, 30 g/L), media pH 7.33, 2AzGlc 40 mM): 0.28 mg/mL
Titer (S. pneumoniae T14 [2]; production media + Glucose (dextrose, 30 g/L), media pH 7.33, 2AzGlc 60 mM): 0.28 mg/mL
Polysacch. Titer (S. pneumoniae T14 [2]; pH 6.33, agitation 100 rpm): 0.195 mg/mL and 0.193 mg/mL
Polysacch. Titer (S. pneumoniae T14 [2]; pH 6.33, agitation 200 rpm): 0.171 mg/mL
Polysacch. Titer (S. pneumoniae T14 [2]; pH 6.33, agitation 300 rpm): 0.087 mg/mL and 0.149 mg/mL
Polysacch. Titer (S. pneumoniae T14 [2]; pH 6.66, agitation 100 rpm): 0.247 mg/mL
Polysacch. Titer (S. pneumoniae T14 [2]; pH 6.66, agitation 300 rpm): 0.227 mg/mL
Polysacch. Titer (S. pneumoniae T14 [2]; pH 7, agitation 200 rpm): 0.269 mg/mL
Polysacch. Titer (S. pneumoniae T14 [2]; pH 7.33, agitation 100 rpm): 0.235 mg/mL and 0.216 mg/mL
Polysacch. Titer (S. pneumoniae T14 [2]; pH 7.33, agitation 300 rpm): 0.228 mg/mL and 0.211 mg/mL
polysaccharide titer (S. pneumoniae T14 [2]; [17]): reduced
rate of galactose consumption, of the batch model (S. pneumoniae T14 [3]; 2AzGlc addition, production medium + Galactose (30 g/L)): ~70%
concentration at which negative effect on growth started (S. pneumoniae T14 [3]; [5]): 20 mM
growth with increasing 2AzGlc concentrations (S. pneumoniae T14 [3]; [6]): negatively impacted
MaxOD (S. pneumoniae T14 [3]; [7]): 9.78 and 9.56
MaxOD (S. pneumoniae T14 [3]; [8]): 8.74 and 8.32
MaxOD (S. pneumoniae T14 [3]; [9]): 8.96 and 8.13
MaxOD (S. pneumoniae T14 [3]; [10]): 5.76 and 5.65
MaxOD (S. pneumoniae T14 [3]; [11]): 9.78 and 7.39
MaxOD (S. pneumoniae T14 [3]; [12]): 8.44 and 6.64
MaxOD (S. pneumoniae T14 [3]; [13]): 8.53 and 8.4
MaxOD (S. pneumoniae T14 [3]; [14]): 4.53 and 3.71
growth (S. pneumoniae T14 [3]; [15]): strongly inhibited
OD600 nm at which growth stopped (S. pneumoniae T14 [3]; fed-batch, initial galactose 5.0 g/L, 0.25 mM 2AzGlc, regardless of feed rate): 3.0
maximum OD600 nm (average) (S. pneumoniae T14 [3]; [16]): 8.5
MaxOD600 nm (S. pneumoniae T14 [3]; pH 6.66, agitation 200 rpm): 11.7
MaxOD600 nm (S. pneumoniae T14 [3]; pH 7, agitation 300 rpm): 11.3 and 12.9
MaxOD600 nm (S. pneumoniae T14 [3]; pH 7.33, agitation 300 rpm): 10.5 and 10.4
MaxOD (S. pneumoniae T14 [3]; production medium + Galactose (30 g/L) + 2AzGlc (0.25 mM), pH 6.33, agitation 100 rpm): 6.98 and 6.76
MaxOD (S. pneumoniae T14 [3]; production medium + Galactose (30 g/L) + 2AzGlc (0.25 mM), pH 6.33, agitation 200 rpm): 6.81
MaxOD (S. pneumoniae T14 [3]; production medium + Galactose (30 g/L) + 2AzGlc (0.25 mM), pH 6.33, agitation 300 rpm): 6.05 and 5.89
MaxOD (S. pneumoniae T14 [3]; production medium + Galactose (30 g/L) + 2AzGlc (0.25 mM), pH 6.66, agitation 100 rpm): 8.96
MaxOD (S. pneumoniae T14 [3]; production medium + Galactose (30 g/L) + 2AzGlc (0.25 mM), pH 6.66, agitation 300 rpm): 9.1
MaxOD (S. pneumoniae T14 [3]; production medium + Galactose (30 g/L) + 2AzGlc (0.25 mM), pH 7, agitation 200 rpm): 9.38
MaxOD (S. pneumoniae T14 [3]; production medium + Galactose (30 g/L) + 2AzGlc (0.25 mM), pH 7.33, agitation 100 rpm): 8.43 and 8.23
MaxOD (S. pneumoniae T14 [3]; production medium + Galactose (30 g/L) + 2AzGlc (0.25 mM), pH 7.33, agitation 300 rpm): 8.54 and 8.26
maximum OD (S. pneumoniae T14 [3]; [17]): reduced
